Measurements reported in ChEMBL document CHEMBL1201862, “PubChem BioAssay data set” (2004).
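Exposure lasted 48 hours, with cells grown in 96-well plates and compounds tested at five concentrations. GI50 marks 50% less growth.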 Calls of active or inactive are those of the source. Cut-off read from the data, not from the text of the source: active = GI50 up to about 1.1 µM and inactive = higher.

How the values were obtained:
Assay in all cases: NCI-60 cell line screen, 48 h
RPMI-8226 = system: RPMI-8226
UACC-257 = system: UACC-257
SW-620 = system: SW-620
HCC 2998 = system: HCC 2998
CAKI-1 = system: CAKI-1
K562 = system: K562
SK-MEL-5 = system: SK-MEL-5
SF-295 = system: SF-295
RXF 393 = system: RXF 393
A549 = system: A549
NCI-H522 = system: NCI-H522
LOX IMVI = system: LOX IMVI
OVCAR-3 = system: OVCAR-3
NCI-H23 = system: NCI-H23
HL-60 = system: HL-60
SF-539 = system: SF-539
HCT-15 = system: HCT-15
PC-3 = system: PC-3
NCI/ADR-RES = system: NCI/ADR-RES

Row | SMILES | GI50 (RPMI-8226) | GI50 (UACC-257) | GI50 (SW-620) | GI50 (HCC 2998) | GI50 (CAKI-1) | GI50 (K562) | GI50 (SK-MEL-5) | GI50 (SF-295) | GI50 (RXF 393) | GI50 (A549) | GI50 (NCI-H522) | GI50 (LOX IMVI) | GI50 (OVCAR-3) | GI50 (NCI-H23) | GI50 (HL-60) | GI50 (SF-539) | GI50 (HCT-15) [µM] | GI50 (PC-3) | GI50 (NCI/ADR-RES)
1 | CCc1ccccc1NC(=O)CC1NC(=O)CS1 (centres undefined) | > 100 µM (inactive) | > 100 µM (inactive) | > 100 µM (inactive) | > 100 µM (inactive) | > 100 µM (inactive) | > 100 µM (inactive) | > 100 µM (inactive) | > 100 µM (inactive) | > 100 µM (inactive) | > 100 µM (inactive) | > 100 µM (inactive) | > 100 µM (inactive) | > 100 µM (inactive) | > 100 µM (inactive) | > 100 µM (inactive) | > 100 µM (inactive) | – | – | –
2 | O=c1cc(CO)oc2c3c(cc(O)c12)OCC(COC1OC(CO)C(O)C(O)C1O)=CC3 (centres undefined) | > 100 µM (inactive) | > 100 µM (inactive) | > 100 µM (inactive) | > 100 µM (inactive) | > 100 µM (inactive) | > 100 µM (inactive) | > 100 µM (inactive) | > 100 µM (inactive) | > 100 µM (inactive) | > 100 µM (inactive) | > 100 µM (inactive) | > 100 µM (inactive) | > 100 µM (inactive) | > 100 µM (inactive) | > 100 µM (inactive) | > 100 µM (inactive) | > 100 | – | –
3 | O=C1NC(=O)/C(=C\c2ccncc2)N1 | – | > 100 µM (inactive) | > 100 µM (inactive) | > 100 µM (inactive) | > 100 µM (inactive) | – | > 100 µM (inactive) | > 100 µM (inactive) | – | > 100 µM (inactive) | – | > 100 µM (inactive) | > 100 µM (inactive) | > 100 µM (inactive) | > 10 µM (inactive) | > 100 µM (inactive) | > 100 | > 100 µM (inactive) | > 100 µM (inactive)
4 | CCO/C=C1\N=C(c2ccc(Cl)c(Cl)c2)OC1=O | > 100 µM (inactive) | > 100 µM (inactive) | > 100 µM (inactive) | > 100 µM (inactive) | > 100 µM (inactive) | > 100 µM (inactive) | > 100 µM (inactive) | > 100 µM (inactive) | 79.8 µM (inactive) | > 100 µM (inactive) | 89.5 µM (inactive) | > 100 µM (inactive) | > 100 µM (inactive) | > 100 µM (inactive) | > 100 µM (inactive) | > 100 µM (inactive) | > 100 | – | –
5 | C=C1C(=O)OC2/C=C(\C)C(OC(C)=O)C3OC3C(C)(O)CC(OC(=O)/C(C)=C/C)C12 (centres undefined) | 4.91 µM (inactive) | 14.7 µM (inactive) | < 0.01 µM (active) | 8.38 µM (inactive) | 2.38 µM (inactive) | 4.35 µM (inactive) | 13.7 µM (inactive) | 19.1 µM (inactive) | 3.85 µM (inactive) | 18.7 µM (inactive) | 1.62 µM (inactive) | 15.3 µM (inactive) | 3.9 µM (inactive) | 12.8 µM (inactive) | 2.51 µM (inactive) | 3.67 µM (inactive) | 12.8 | – | –
6 | BrC(c1cccc2ccccc12)c1cccc2ccccc12 | > 100 µM (inactive) | 19.2 µM (inactive) | 16.7 µM (inactive) | – | 22.2 µM (inactive) | > 100 µM (inactive) | 17.5 µM (inactive) | 25.5 µM (inactive) | 13.6 µM (inactive) | 26.4 µM (inactive) | 10.9 µM (inactive) | 15.8 µM (inactive) | 11.9 µM (inactive) | 19.9 µM (inactive) | 20 µM (inactive) | – | 17.7 | 22.1 µM (inactive) | 16.5 µM (inactive)
7 | C[C@]12CC[C@H](O)CC1CCC[C@@H]2O (some centres undefined) | > 100 µM (inactive) | > 100 µM (inactive) | > 100 µM (inactive) | > 100 µM (inactive) | > 100 µM (inactive) | > 100 µM (inactive) | > 100 µM (inactive) | > 100 µM (inactive) | > 100 µM (inactive) | > 100 µM (inactive) | > 100 µM (inactive) | > 100 µM (inactive) | > 100 µM (inactive) | > 100 µM (inactive) | > 100 µM (inactive) | > 100 µM (inactive) | > 100 | – | –
8 | CC(=O)O[C@H]1C(=O)[C@@]2(C)C([C@H](OC(=O)c3ccccc3)[C@]3(O)C[C@H](OC(=O)[C@H](O)[C@H](NC(=O)c4ccccc4)c4ccc(Cl)cc4)C(C)=C1C3(C)C)C1(OC(C)=O)CO[C@@H]1C[C@@H]2O (some centres undefined) | 0.000157 µM (active) | 0.00425 µM (active) | 0.000497 µM (active) | 0.000813 µM (active) | 0.151 µM (active) | 0.000807 µM (active) | 0.000736 µM (active) | 0.0194 µM (active) | 0.0149 µM (active) | 0.000678 µM (active) | 0.000356 µM (active) | < 0.0001 µM (active) | 0.00222 µM (active) | 0.00104 µM (active) | < 0.0001 µM (active) | 0.000367 µM (active) | 0.516 | – | –
9 | Cc1cc(Cl)ccc1NC(=O)C1C(=O)N(c2ccc(Cl)cc2C)C(=O)/C1=N\N (centres undefined) | 25.4 µM (inactive) | > 100 µM (inactive) | 42.4 µM (inactive) | 24.9 µM (inactive) | 35.6 µM (inactive) | 45.1 µM (inactive) | 30.5 µM (inactive) | 28.9 µM (inactive) | > 100 µM (inactive) | 34.4 µM (inactive) | 53.5 µM (inactive) | 51.2 µM (inactive) | 30.8 µM (inactive) | 36.9 µM (inactive) | 24.5 µM (inactive) | 44.6 µM (inactive) | 34.8 | – | –
10 | CC1=C(C(=O)Nc2ccccc2)C(c2ccc(C(C)C)cc2)C(C(=O)Nc2ccccc2)=C(C)N1 | 6.71 µM (inactive) | – | 17.2 µM (inactive) | 7.19 µM (inactive) | 21.9 µM (inactive) | 12.1 µM (inactive) | 12.9 µM (inactive) | 37.9 µM (inactive) | 11.8 µM (inactive) | 16.5 µM (inactive) | 15.1 µM (inactive) | 15 µM (inactive) | 18.2 µM (inactive) | 20 µM (inactive) | 9.59 µM (inactive) | 12.8 µM (inactive) | 14.8 | – | –
11 | Nc1cnc2c(c1)c(=O)nc1n2CCS1 | 74 µM (inactive) | > 100 µM (inactive) | > 100 µM (inactive) | > 100 µM (inactive) | 72.4 µM (inactive) | > 100 µM (inactive) | > 100 µM (inactive) | > 100 µM (inactive) | > 100 µM (inactive) | > 100 µM (inactive) | – | > 100 µM (inactive) | > 100 µM (inactive) | > 100 µM (inactive) | > 100 µM (inactive) | > 100 µM (inactive) | > 100 | > 100 µM (inactive) | > 100 µM (inactive)
12 | Cc1ccc(C(=O)/C=C(\O)C(=O)NC23CC4CC(CC(C4)C2)C3)cc1 | 8.61 µM (inactive) | > 10 µM (inactive) | > 10 µM (inactive) | > 10 µM (inactive) | > 10 µM (inactive) | 5.64 µM (inactive) | > 10 µM (inactive) | 5.86 µM (inactive) | > 10 µM (inactive) | > 10 µM (inactive) | – | 0.851 µM (active) | – | 5.43 µM (inactive) | 4.25 µM (inactive) | – | 6.27 | 9.79 µM (inactive) | –
